From ChEMBL document CHEMBL1150461, “Synthesis of new 3-thiosubstituted carbacephem antibiotics and their activity against penicillin resistant Streptococcus pneumoniae” (1997)
In brackets after ≈: the same amount, converted by molar mass.

How the values were obtained:
Assay type in all cases: functional
Streptococcus pneumoniae [1] = assay: In vitro minimum inhibitory concentration against penicillin resistant Streptococcus pneumoniae strains (PRSP) (number of strains = 5).
Streptococcus pneumoniae [2] = assay: In vitro minimum inhibitory concentration against penicillin intermediate Streptococcus pneumoniae strains (number of strains = 3).
Streptococcus pneumoniae [3] = assay: In vitro minimum inhibitory concentration against penicillin susceptible Streptococcus pneumoniae strains (number of strains = 3).

| Compound | MIC (Streptococcus pneumoniae [1]) | MIC (Streptococcus pneumoniae [2]) | MIC (Streptococcus pneumoniae [3]) |
| --- | --- | --- | --- |
| N[C@@H](C(=O)N[C@@H]1C(=O)N2C(C(=O)O)=C(Sc3ccccn3)CC[C@H]12)c1ccccc1 | 2 µg/mL (≈ 4.71 µM) | 1 µg/mL (≈ 2.36 µM) | 0.06 µg/mL (≈ 0.141 µM) |
| CCSc1nnc(SC2=C(C(=O)O)N3C(=O)[C@@H](NC(=O)[C@H](N)c4ccccc4)[C@H]3CC2)s1 | 0.5 µg/mL (≈ 1.02 µM) | 0.25 µg/mL (≈ 0.509 µM) | 0.03 µg/mL (≈ 0.061 µM) |
| N[C@@H](C(=O)N[C@@H]1C(=O)N2C(C(=O)O)=C(Sc3ccncc3)CC[C@H]12)c1ccccc1 | 4 µg/mL (≈ 9.42 µM) | 0.25 µg/mL (≈ 0.589 µM) | 0.12 µg/mL (≈ 0.283 µM) |
| N[C@@H](C(=O)N[C@@H]1C(=O)N2C(C(=O)O)=C(Sc3cccs3)CC[C@H]12)c1ccccc1 | 16 µg/mL (≈ 37.3 µM) | 2 µg/mL (≈ 4.66 µM) | 0.25 µg/mL (≈ 0.582 µM) |
| N[C@@H](C(=O)N[C@@H]1C(=O)N2C(C(=O)O)=C(Sc3nncs3)CC[C@H]12)c1ccccc1 | 1 µg/mL (≈ 2.32 µM) | 0.25 µg/mL (≈ 0.579 µM) | 0.06 µg/mL (≈ 0.139 µM) |
| N[C@@H](C(=O)N[C@@H]1C(=O)N2C(C(=O)O)=C(Sc3ccccc3CO)CC[C@H]12)c1ccccc1 | 4 µg/mL (≈ 8.82 µM) | 2 µg/mL (≈ 4.41 µM) | 0.06 µg/mL (≈ 0.132 µM) |
| C[n+]1ccc(SC2=C(C(=O)[O-])N3C(=O)[C@@H](NC(=O)[C@H](N)c4ccccc4)[C@H]3CC2)cc1 | 4 µg/mL (≈ 9.12 µM) | 1 µg/mL (≈ 2.28 µM) | 0.25 µg/mL (≈ 0.57 µM) |
| N[C@@H](C(=O)N[C@@H]1C(=O)N2C(C(=O)O)=C(Sc3ccccc3Br)CC[C@H]12)c1ccccc1 | 2 µg/mL (≈ 3.98 µM) | 0.25 µg/mL (≈ 0.498 µM) | 0.06 µg/mL (≈ 0.119 µM) |
| N[C@@H](C(=O)N[C@@H]1C(=O)N2C(C(=O)O)=C(Sc3nnc(SCC4CC4)s3)CC[C@H]12)c1ccccc1 | 0.25 µg/mL (≈ 0.483 µM) | 0.06 µg/mL (≈ 0.116 µM) | < 0.03 µg/mL |
| CSC1=C(C(=O)O)N2C(=O)[C@@H](NC(=O)[C@H](N)c3ccccc3)[C@H]2CC1 | > 16 µg/mL | 8 µg/mL (≈ 22.1 µM) | 1 µg/mL (≈ 2.77 µM) |
| N[C@@H](C(=O)N[C@@H]1C(=O)N2C(C(=O)O)=C(Sc3cnns3)CC[C@H]12)c1ccccc1 | 1 µg/mL (≈ 2.32 µM) | 0.25 µg/mL (≈ 0.579 µM) | 0.06 µg/mL (≈ 0.139 µM) |
| Nc1nnc(SC2=C(C(=O)O)N3C(=O)[C@@H](NC(=O)[C@H](N)c4ccccc4)[C@H]3CC2)s1 | 2 µg/mL (≈ 4.48 µM) | 0.5 µg/mL (≈ 1.12 µM) | 0.06 µg/mL (≈ 0.134 µM) |
| Cn1ccnc1SC1=C(C(=O)O)N2C(=O)[C@@H](NC(=O)[C@H](N)c3ccccc3)[C@H]2CC1 | > 16 µg/mL | 8 µg/mL (≈ 18.7 µM) | 1 µg/mL (≈ 2.34 µM) |
| N[C@@H](C(=O)N[C@@H]1C(=O)N2C(C(=O)O)=C(Sc3ncccn3)CC[C@H]12)c1ccccc1 | 4 µg/mL (≈ 9.4 µM) | 0.5 µg/mL (≈ 1.18 µM) | 0.12 µg/mL (≈ 0.282 µM) |
| N[C@@H](C(=O)N[C@@H]1C(=O)N2C(C(=O)O)=C(Sc3ccccc3)CC[C@H]12)c1ccccc1 | 4 µg/mL (≈ 9.45 µM) | 1 µg/mL (≈ 2.36 µM) | 0.06 µg/mL (≈ 0.142 µM) |
| N=C(N)SCc1ccccc1SC1=C(C(=O)O)N2C(=O)[C@@H](NC(=O)[C@H](N)c3ccccc3)[C@H]2CC1 | 0.5 µg/mL (≈ 0.977 µM) | 0.25 µg/mL (≈ 0.489 µM) | 0.02 µg/mL (≈ 0.0391 µM) |
| Cn1cnnc1SC1=C(C(=O)O)N2C(=O)[C@@H](NC(=O)[C@H](N)c3ccccc3)[C@H]2CC1 | > 16 µg/mL | 4 µg/mL (≈ 9.34 µM) | 0.5 µg/mL (≈ 1.17 µM) |
| N[C@@H](C(=O)N[C@@H]1C(=O)N2C(C(=O)O)=C(Sc3nc4ccccc4s3)CC[C@H]12)c1ccccc1 | 8 µg/mL (≈ 16.6 µM) | 4 µg/mL (≈ 8.32 µM) | 0.5 µg/mL (≈ 1.04 µM) |
| Cc1nnc(SC2=C(C(=O)O)N3C(=O)[C@@H](NC(=O)[C@H](N)c4ccccc4)[C@H]3CC2)s1 | 1 µg/mL (≈ 2.24 µM) | 1 µg/mL (≈ 2.24 µM) | 0.03 µg/mL (≈ 0.0673 µM) |
| CSc1nnc(SC2=C(C(=O)O)N3C(=O)[C@@H](NC(=O)[C@H](N)c4ccccc4)[C@H]3CC2)s1 | 0.25 µg/mL (≈ 0.523 µM) | 0.06 µg/mL (≈ 0.126 µM) | < 0.03 µg/mL |
| N[C@@H](C(=O)N[C@@H]1C(=O)N2C(C(=O)O)=C(Sc3nccs3)CC[C@H]12)c1ccccc1 | 4 µg/mL (≈ 9.29 µM) | 2 µg/mL (≈ 4.65 µM) | 0.12 µg/mL (≈ 0.279 µM) |
| N[C@@H](C(=O)N[C@@H]1C(=O)N2C(C(=O)O)=C(Cl)CC[C@H]12)c1ccccc1 [LORACARBEF ANHYDROUS] | > 16 µg/mL | 8 µg/mL (≈ 22.9 µM) | 2 µg/mL (≈ 5.72 µM) |
